The record followed here is patent publication US12258338B2, “Modulators of the integrated stress response pathway” (EVOTEC INTERNATIONAL GMBH, priority 2019, dated 2025).

For data set [1], the target named is T1, human ERG potassium channel (hERG) (Homo sapiens, UniProt Q12809).
T1 construct: expressed in transfected cells; host or cells: HEK293, stably transfected, tetracycline-inducible promoter
Briefly: hERG channel tail current recording using in vitro Rapid ICE (automated patch-clamp, QPatch HTX). Format: cell-based. A digest of the protocol:
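Automated patch clamp on tetracycline-induced HEK293 hERG cells; pulse −80 to −50 mV 200 ms, +20 mV 4.8 s, −50 mV 5 s tail, extracellular pH 7.4. Compound at 0.3, 3, 30 μM (0.3% DMSO), 5 min exposure; tail current versus vehicle gives % inhibition and estimated IC50.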

Data set [2] is described as follows: Log D 7.4 assay (1-octanol / phosphate buffer pH 7.4). The format is physicochemical. Here is the method:
Phosphate buffer (1 M) was diluted to 20 mM with deionised water and adjusted to pH 7.4 (±0.05) with phosphoric acid or sodium hydroxide. A 1:1 mixture of phosphate buffer (20 mM) and 1-octanol were saturated by tumbling overnight after which time the two phases were separated. Using an automated liquid handler the following procedure was carried out: 20 mM DMSO stocks of assay and control compounds were reformatted to provide cassettes of 4 compounds per well giving a final concentration of 5 mM per compound. In duplicate 5 μL of the cassetted compounds were added to 495 μL 1-octanol (saturated with buffer) followed by 495 μL of buffer (saturated with 1-octanol) in a 96-well plate giving final incubation concentrations of 25 μM (50 μM max concentration in either layer if all compound partitioned into a single matrix). The layers were mixed by aspirating and dispensing the buffer and octanol layers into one another three times. The plate was sealed, shaken for 120 minutes and then centrifuged at 25° C. for 15 min at 4600 rpm. The 1-octanol and buffer layer were sampled separately (ensuring no cross contamination) and the respective samples diluted with 60:40 ACN:0.1 M ammonium acetate pH 7.4 (containing external standard; Sulfisoxazole, assay concentration 120 nM) to obtain final theoretical maximum concentrations of the 1-octanol layer of 0.025 μM, 0.5 μM and a buffer layer concentration of 0.5 μM. The second buffer sample was prepared by diluting the assay buffer layer with acetonitrile (containing external standard; Sulfisoxazole, assay concentration 120 nM) to give a theoretical maximum concentration of 20 μM. The analytical samples were analysed by LC-MS/MS and the Log D calculated as shown:
[formula] Where PA=Peak area and ES=External standard

T1 sequence (Q12809 whole entry): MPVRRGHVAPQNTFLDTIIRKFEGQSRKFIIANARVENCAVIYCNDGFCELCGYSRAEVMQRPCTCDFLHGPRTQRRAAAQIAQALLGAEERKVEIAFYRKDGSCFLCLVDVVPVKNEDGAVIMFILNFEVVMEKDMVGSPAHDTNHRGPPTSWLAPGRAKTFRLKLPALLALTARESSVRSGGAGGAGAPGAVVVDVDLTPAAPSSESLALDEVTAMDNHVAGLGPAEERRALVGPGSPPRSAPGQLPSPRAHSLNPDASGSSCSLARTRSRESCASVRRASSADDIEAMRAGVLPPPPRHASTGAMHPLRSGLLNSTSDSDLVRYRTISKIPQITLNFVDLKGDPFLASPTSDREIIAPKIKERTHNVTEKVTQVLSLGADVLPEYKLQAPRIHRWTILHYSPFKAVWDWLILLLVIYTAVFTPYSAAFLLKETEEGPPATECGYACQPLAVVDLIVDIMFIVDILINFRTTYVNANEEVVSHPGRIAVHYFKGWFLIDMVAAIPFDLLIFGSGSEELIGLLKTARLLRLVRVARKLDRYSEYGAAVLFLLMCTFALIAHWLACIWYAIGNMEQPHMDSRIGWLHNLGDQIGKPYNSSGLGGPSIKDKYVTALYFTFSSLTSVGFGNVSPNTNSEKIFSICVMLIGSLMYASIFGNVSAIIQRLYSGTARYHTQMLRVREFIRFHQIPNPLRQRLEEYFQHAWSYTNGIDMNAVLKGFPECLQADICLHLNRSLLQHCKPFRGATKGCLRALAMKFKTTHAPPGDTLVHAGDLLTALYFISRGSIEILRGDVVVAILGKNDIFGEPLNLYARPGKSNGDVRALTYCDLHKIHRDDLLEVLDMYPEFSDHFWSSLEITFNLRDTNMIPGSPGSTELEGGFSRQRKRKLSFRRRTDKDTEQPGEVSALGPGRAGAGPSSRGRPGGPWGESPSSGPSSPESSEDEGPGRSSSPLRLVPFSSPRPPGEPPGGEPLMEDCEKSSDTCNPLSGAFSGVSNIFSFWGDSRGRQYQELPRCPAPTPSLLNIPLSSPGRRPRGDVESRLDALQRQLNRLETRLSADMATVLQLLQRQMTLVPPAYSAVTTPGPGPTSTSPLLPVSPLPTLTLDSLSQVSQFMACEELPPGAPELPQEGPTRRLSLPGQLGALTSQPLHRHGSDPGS

As for `O=C(COc1ccc(Cl)c(F)c1)N[C@H]1CC[C@H](c2nnc([C@H]3C[C@@H](OC(F)(F)F)C3)o2)NC1` [Example 50, 2-(4-chloro-3-fluorophenoxy)-N-[(3S,6R)-6-{5-[(1s,3s)-3-(trifluoromethoxy)cyclobutyl]-1,3,4-oxadiazol-2-yl}piperidin-3-yl]acetamide], the half-inhibitory concentration (IC50) is 1 to 5 µM in data set [1] (Table 24) and over 5 µM in data set [1] (Table 26). In data set [2], this compound had a logD at 120 min of 2.7.
Consider `O=C(COc1ccc(Cl)c(F)c1)N[C@H]1CC[C@H](c2nnc(COC(F)(F)F)o2)NC1` [Example 61, 2-(4-chloro-3-fluorophenoxy)-N-[(3S,6R)-6-(5-[(trifluoromethoxy)methyl]-1,3,4-oxadiazol-2-yl}piperidin-3-yl]acetamide], for which the IC50 in data set [1] (Table 24) and in data set [1] (Table 26) was 1 to 5 µM each time. This compound also yielded a logD at 120 min in data set [2] of 2.3.
